In ChEMBL document CHEMBL6071168, “Discovery of novel fructose-1,6-bisphosphatase inhibitors bearing benzimidazole scaffold using a dual-ligand molecular docking model” (Eur J Med Chem, 2024):
Activity calls are given as the source filed them. The rule behind the calls is not given here.

What was measured:
Homo sapiens = species: Homo sapiens; test: Inhibition of Fructose-1,6-bisphosphatase (unknown origin) preincubated for 10 min followed by addition of NADP+, PGI,G6PDH at 10 uM measured after 40 min by absorption based analysis relative to control; conditions: time 50.0 min
[1] = Inhibition of Fructose-1,6-bisphosphatase (unknown origin); design: species or system Homo sapiens
Mus musculus [2] = test: Anti-diabetic activity against 16 hrs fasted ICR mouse assessed as reduced blood glucose level at 150 mg/kg, po measured after 90 min by oral pyruvate tolerance test; type: functional, organism-based
[3] = Inhibition of Fructose-1,6-bisphosphatase (unknown origin) preincubated for 10 min followed by addition of NADP+, PGI,G6PDH and measured after 40 min by absorption based analysis; design: species or system Homo sapiens
Cytochrome P450 1A2 = target: T1, Cytochrome P450 1A2 (Homo sapiens, UniProt P05177); test: Inhibition of CYP1A2 (unknown origin) incubated for 30 min in presence of NADPH by LC-MS/MS analysis; type: ADME
T1 sequence (P05177 whole entry): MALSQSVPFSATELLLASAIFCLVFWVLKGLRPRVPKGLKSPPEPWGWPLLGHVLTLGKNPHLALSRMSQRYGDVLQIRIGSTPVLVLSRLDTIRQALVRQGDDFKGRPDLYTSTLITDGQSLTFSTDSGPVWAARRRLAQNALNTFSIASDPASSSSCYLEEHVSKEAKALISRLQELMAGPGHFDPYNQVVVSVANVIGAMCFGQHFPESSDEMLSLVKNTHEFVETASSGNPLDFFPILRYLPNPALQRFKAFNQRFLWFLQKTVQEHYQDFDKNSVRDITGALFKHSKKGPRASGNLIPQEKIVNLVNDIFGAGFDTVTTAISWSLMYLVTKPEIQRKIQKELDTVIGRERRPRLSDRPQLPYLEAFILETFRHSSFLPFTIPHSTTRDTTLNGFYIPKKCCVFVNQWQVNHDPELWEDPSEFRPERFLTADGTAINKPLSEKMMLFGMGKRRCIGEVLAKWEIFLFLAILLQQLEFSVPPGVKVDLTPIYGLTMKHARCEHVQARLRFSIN

[4] = Clearance in ICR mouse at 5 mg/kg, iv by HPLC-MS/MS analysis; type: ADME, organism-based; conditions: in vivo
[5] = AUC (0 to t) in ICR mouse at 100 mg/kg, po by HPLC-MS/MS analysis; type: ADME, organism-based; conditions: in vivo
[6] = MRT (0 to t) in ICR mouse at 5 mg/kg, iv by HPLC-MS/MS analysis; type: ADME, organism-based; conditions: in vivo
[7] = Tmax in ICR mouse at 100 mg/kg, po by HPLC-MS/MS analysis; type: ADME, organism-based; conditions: in vivo
Cytochrome P450 2C9 = Cytochrome P450 2C9 (Homo sapiens, UniProt P11712); test: Inhibition of CYP2C9 (unknown origin) incubated for 30 min in presence of NADPH by LC-MS/MS analysis; type: ADME
Cytochrome P450 3A4 = Cytochrome P450 3A4 (Homo sapiens, UniProt P08684); test: Inhibition of CYP3A4 (unknown origin) incubated for 30 min in presence of NADPH by LC-MS/MS analysis; type: ADME
[8] = AUC (0 to infinity) in ICR mouse at 100 mg/kg, po by HPLC-MS/MS analysis; type: ADME, organism-based; conditions: in vivo
[9] = AUC (0 to t) in ICR mouse at 5 mg/kg, iv by HPLC-MS/MS analysis; type: ADME, organism-based; conditions: in vivo
[10] = Half life in ICR mouse at 5 mg/kg, iv by HPLC-MS/MS analysis; type: ADME, organism-based; conditions: in vivo
Cytochrome P450 2D6 = Cytochrome P450 2D6 (Homo sapiens, UniProt P10635); test: Inhibition of CYP2D6 (unknown origin) incubated for 30 min in presence of NADPH by LC-MS/MS analysis; type: ADME
[11] = AUC (0 to infinity) in ICR mouse at 5 mg/kg, iv by HPLC-MS/MS analysis; type: ADME, organism-based; conditions: in vivo
[12] = MRT (0 to infinity) in ICR mouse at 5 mg/kg, iv by HPLC-MS/MS analysis; type: ADME, organism-based; conditions: in vivo
[13] = Cmax in ICR mouse at 5 mg/kg, iv by HPLC-MS/MS analysis; type: ADME, organism-based; conditions: in vivo
[14] = Tmax in ICR mouse at 5 mg/kg, iv by HPLC-MS/MS analysis; type: ADME, organism-based; conditions: in vivo
Cytochrome P450 3A5 = Cytochrome P450 3A5 (Homo sapiens, UniProt P20815); test: Inhibition of CYP3A5 (unknown origin) incubated for 30 min in presence of NADPH by LC-MS/MS analysis; type: ADME
[15] = MRT (0 to infinity) in ICR mouse at 100 mg/kg, po by HPLC-MS/MS analysis; type: ADME, organism-based; conditions: in vivo
Cytochrome P450 2C19 = Cytochrome P450 2C19 (Homo sapiens, UniProt P33261); test: Inhibition of CYP2C19 (unknown origin) incubated for 30 min in presence of NADPH by LC-MS/MS analysis; type: ADME
[16] = Half life in ICR mouse at 100 mg/kg, po by HPLC-MS/MS analysis; type: ADME, organism-based; conditions: in vivo
[17] = MRT (0 to t) in ICR mouse at 100 mg/kg, po by HPLC-MS/MS analysis; type: ADME, organism-based; conditions: in vivo
[18] = Oral Bioavailability in ICR mouse at 100 mg/kg by HPLC-MS/MS analysis; type: ADME, organism-based; conditions: in vivo
[19] = Apparent volume of distribution in ICR mouse at 100 mg/kg, po by HPLC-MS/MS analysis; type: ADME, organism-based; conditions: in vivo
[20] = Apparent volume of distribution in ICR mouse at 5 mg/kg, iv by HPLC-MS/MS analysis; type: ADME, organism-based; conditions: in vivo, read-out: Vz
Mus musculus [21] = test: Anti-diabetic activity against 16 hrs fasted ICR mouse assessed as reduced blood glucose level at 150 mg/kg, po measured after 30 to 90 min by oral pyruvate tolerance test; type: functional, organism-based; conditions: time 30-90 min
[22] = Cmax in ICR mouse at 100 mg/kg, po by HPLC-MS/MS analysis; type: ADME, organism-based; conditions: in vivo
[23] = Clearance in ICR mouse at 100 mg/kg, po by HPLC-MS/MS analysis; type: ADME, organism-based; conditions: in vivo

Chain of Cytochrome P450 3A5 (P20815 whole entry): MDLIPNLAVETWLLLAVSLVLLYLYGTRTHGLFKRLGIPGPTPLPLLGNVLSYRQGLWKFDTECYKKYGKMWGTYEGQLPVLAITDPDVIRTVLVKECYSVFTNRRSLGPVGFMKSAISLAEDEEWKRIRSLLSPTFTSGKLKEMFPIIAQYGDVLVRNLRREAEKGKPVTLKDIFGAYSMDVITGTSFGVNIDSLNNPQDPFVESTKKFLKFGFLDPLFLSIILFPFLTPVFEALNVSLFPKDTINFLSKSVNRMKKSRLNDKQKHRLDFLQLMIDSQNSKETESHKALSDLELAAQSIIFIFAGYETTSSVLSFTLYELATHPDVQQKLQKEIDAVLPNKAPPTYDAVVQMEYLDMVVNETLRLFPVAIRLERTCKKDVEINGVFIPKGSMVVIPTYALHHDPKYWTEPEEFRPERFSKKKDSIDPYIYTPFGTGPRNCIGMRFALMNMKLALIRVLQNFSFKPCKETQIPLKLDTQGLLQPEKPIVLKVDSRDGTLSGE
Chain of Cytochrome P450 2C9 (P11712 whole entry): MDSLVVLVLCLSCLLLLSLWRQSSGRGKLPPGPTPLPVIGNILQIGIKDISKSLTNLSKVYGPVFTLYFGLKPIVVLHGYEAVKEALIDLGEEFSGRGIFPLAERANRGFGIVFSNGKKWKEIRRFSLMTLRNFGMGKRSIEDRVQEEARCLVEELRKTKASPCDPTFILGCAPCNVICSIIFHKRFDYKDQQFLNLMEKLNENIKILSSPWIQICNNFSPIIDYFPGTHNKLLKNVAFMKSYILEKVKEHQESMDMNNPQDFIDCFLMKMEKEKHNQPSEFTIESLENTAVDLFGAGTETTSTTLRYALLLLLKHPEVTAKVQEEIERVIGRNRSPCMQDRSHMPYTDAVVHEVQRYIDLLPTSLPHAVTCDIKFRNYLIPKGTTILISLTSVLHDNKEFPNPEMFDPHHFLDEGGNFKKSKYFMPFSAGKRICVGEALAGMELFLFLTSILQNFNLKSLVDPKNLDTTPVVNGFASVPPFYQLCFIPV
Chain of Cytochrome P450 2D6 (P10635 whole entry): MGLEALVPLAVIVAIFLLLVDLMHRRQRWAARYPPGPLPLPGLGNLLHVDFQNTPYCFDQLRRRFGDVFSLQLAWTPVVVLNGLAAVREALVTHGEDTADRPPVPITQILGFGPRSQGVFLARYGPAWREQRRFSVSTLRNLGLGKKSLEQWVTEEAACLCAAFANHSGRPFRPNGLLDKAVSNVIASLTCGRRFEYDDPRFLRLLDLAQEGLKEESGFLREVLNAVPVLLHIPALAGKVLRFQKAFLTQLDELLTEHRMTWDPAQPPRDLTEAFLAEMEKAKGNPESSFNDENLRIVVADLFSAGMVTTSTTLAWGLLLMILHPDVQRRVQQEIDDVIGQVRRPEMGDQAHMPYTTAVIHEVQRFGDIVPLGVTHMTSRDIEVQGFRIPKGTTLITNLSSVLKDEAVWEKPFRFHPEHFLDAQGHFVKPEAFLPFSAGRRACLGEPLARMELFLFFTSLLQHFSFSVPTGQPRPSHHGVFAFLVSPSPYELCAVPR
Chain of Cytochrome P450 3A4 (P08684 whole entry): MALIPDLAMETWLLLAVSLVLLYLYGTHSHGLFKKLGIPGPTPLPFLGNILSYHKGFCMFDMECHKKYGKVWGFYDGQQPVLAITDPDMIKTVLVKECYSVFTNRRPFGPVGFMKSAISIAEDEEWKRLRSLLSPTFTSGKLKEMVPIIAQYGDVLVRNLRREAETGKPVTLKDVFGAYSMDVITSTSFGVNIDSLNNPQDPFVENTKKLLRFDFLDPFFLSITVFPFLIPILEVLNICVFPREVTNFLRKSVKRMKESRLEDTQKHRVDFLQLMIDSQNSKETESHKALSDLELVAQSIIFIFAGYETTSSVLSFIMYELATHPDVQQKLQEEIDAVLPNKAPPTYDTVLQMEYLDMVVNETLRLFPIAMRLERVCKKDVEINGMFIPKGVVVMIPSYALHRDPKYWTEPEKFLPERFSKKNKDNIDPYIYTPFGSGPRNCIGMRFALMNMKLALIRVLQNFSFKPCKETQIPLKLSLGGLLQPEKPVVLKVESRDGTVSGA
Chain of Cytochrome P450 2C19 (P33261 whole entry): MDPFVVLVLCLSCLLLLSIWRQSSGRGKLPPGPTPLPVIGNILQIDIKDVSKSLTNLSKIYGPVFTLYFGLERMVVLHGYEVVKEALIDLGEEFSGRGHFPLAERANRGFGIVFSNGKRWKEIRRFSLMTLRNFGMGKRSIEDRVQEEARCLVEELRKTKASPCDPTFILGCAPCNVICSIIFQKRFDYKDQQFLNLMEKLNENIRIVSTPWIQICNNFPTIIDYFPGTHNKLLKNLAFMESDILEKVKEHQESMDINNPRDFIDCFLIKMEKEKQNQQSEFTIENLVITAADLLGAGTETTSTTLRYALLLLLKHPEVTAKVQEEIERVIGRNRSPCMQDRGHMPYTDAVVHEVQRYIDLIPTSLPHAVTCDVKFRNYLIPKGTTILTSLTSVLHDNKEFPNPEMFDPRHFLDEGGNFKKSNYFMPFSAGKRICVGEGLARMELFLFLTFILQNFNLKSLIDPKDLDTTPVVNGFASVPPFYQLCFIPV

For O=S(=O)(Nc1cccc(-c2nc3ccccc3[nH]2)c1)c1ccc(Cl)cc1, the inhibition (Homo sapiens) was 0%.
Work on O=S(=O)(Nc1cccc(-c2nc3ccccc3n2Cc2ccc(Cl)cc2)c1)c1ccc(Cl)cc1 yielded an inhibition (Homo sapiens) of 16.2%.
Work on COc1ccccc1CNC(=O)N1C(=O)c2ccccc2S1(=O)=O yielded an IC50 [1] of 1.7 µM.
In the case of O=C(NS(=O)(=O)c1ccc(Cl)cc1)c1cc(Cl)cc(-c2nc3ccccc3[nH]2)c1, the Activity (Mus musculus [2]) is reported as “Active”, the inhibition (Homo sapiens) is reported as 88.3% and the IC50 [3] is reported as 1.4 µM.
With COc1ccc(S(=O)(=O)Nc2cccc(-c3nc4ccccc4n3C3CCCCC3)c2)cc1 the inhibition (Homo sapiens) was 47.4%.
CC(C)=CCc1c(O)cc(O)c2c(=O)c(O)c(-c3ccc(O)c(O)c3)oc12 gave an IC50 [1] of 3.62 µM.
For COc1ccc(S(=O)(=O)Nc2ccccc2-c2nc3ccccc3n2-c2ccc(Cl)cc2)cc1, the inhibition (Homo sapiens) was 28.9%.
Work on O=S(=O)(Nc1ccccc1-c1nc2ccccc2n1C1CCCCC1)c1ccc(Cl)cc1 yielded an inhibition (Homo sapiens) of 39.8%.
Compound COc1ccc(S(=O)(=O)NC(=O)c2cccc(-c3nc4ccccc4[nH]3)c2)cc1 has an inhibition (Homo sapiens) of 20.8%.
With COc1ccc(S(=O)(=O)Nc2cccc(-c3nc4ccccc4n3Cc3ccc(Cl)cc3)c2)cc1 the inhibition (Homo sapiens) was 7.1%.
With O=C(NS(=O)(=O)c1ccc(Cl)cc1)c1cccc(-c2nc3ccccc3[nH]2)c1 the inhibition (Homo sapiens) was 0%.
For COc1ccc(S(=O)(=O)Nc2cccc(-c3nc4ccccc4n3C)c2)cc1, the inhibition (Homo sapiens) was 5.7%.
For Cn1c(-c2cccc(C(=O)NS(=O)(=O)c3ccc(Cl)cc3)c2)nc2ccccc21, the inhibition (Homo sapiens) was 4%.
Compound O=c1cc(-c2ccccc2)oc2ccc3ccccc3c12 [BETA-NAPHTHOFLAVONE] has an IC50 (Cytochrome P450 1A2) of 0.148 µM.
O=S(=O)(Nc1cccc(-c2nc3ccccc3n2-c2ccc(Cl)cc2)c1)c1ccc(Cl)cc1 gave an inhibition (Homo sapiens) of 63.5% and an IC50 [3] of 8.04 µM.
Compound O=S(=O)(Nc1ccccc1-c1nc2ccccc2n1Cc1ccc(Cl)cc1)c1ccc(Cl)cc1 has an inhibition (Homo sapiens) of 10.2%.
Work on COc1ccc(S(=O)(=O)Nc2ccccc2-c2nc3ccccc3n2C2CCCCC2)cc1 yielded an inhibition (Homo sapiens) of 17.3%.
COc1ccc(S(=O)(=O)Nc2ccccc2-c2nc3ccccc3n2Cc2ccc(Cl)cc2)cc1 gave an inhibition (Homo sapiens) of 5.6%.
O=C(NS(=O)(=O)c1ccc(F)cc1)c1ccccc1N1CCN(Cc2nc3ccccc3n2C2CCCCC2)CC1 gave an inhibition (Homo sapiens) of 64.3%.
In the case of S=C(SSC(=S)n1cccc1)n1cccc1, the IC50 [1] is reported as 0.13 µM.
CC(C)n1c(-c2cccc(C(=O)NS(=O)(=O)c3ccc(Cl)cc3)c2)nc2ccccc21 showed an inhibition (Homo sapiens) of 0%.
For CC(C)n1c(-c2cccc(NS(=O)(=O)c3ccc(Cl)cc3)c2)nc2ccccc21, the inhibition (Homo sapiens) was 7.1%.
With O=C(NS(=O)(=O)c1ccc(F)cc1)c1cc(Cl)cc(-c2nc3ccccc3[nH]2)c1 the Activity (Mus musculus [2]) was “Active”, the inhibition (Homo sapiens) was 96.3% and the IC50 [3] was 2.16 µM.
CC(=O)Nc1ccc(-n2c(-c3ccccc3NS(=O)(=O)c3ccc(Cl)cc3)nc3ccccc32)cc1 showed an inhibition (Homo sapiens) of 25%.
For COc1ccc(S(=O)(=O)Nc2cccc(-c3nc4ccccc4n3-c3ccc(NC(C)=O)cc3)c2)cc1, the inhibition (Homo sapiens) was 36.8%.
In the case of O=S(=O)(Nc1ccccc1-c1nc2ccccc2n1-c1ccc(Cl)cc1)c1ccc(Cl)cc1, the inhibition (Homo sapiens) is reported as 28.9%.
In the case of O=S(=O)(Nc1cccc(-c2nc3ccccc3n2C2CCCCC2)c1)c1ccc(Cl)cc1, the inhibition (Homo sapiens) is reported as 24.8%.
In the case of COc1ccc(S(=O)(=O)Nc2cc(Cl)cc(-c3nc4ccccc4[nH]3)c2)cc1, the inhibition (Homo sapiens) is reported as 18.2%.
For COc1ccc(S(=O)(=O)Nc2ccccc2-c2nc3ccccc3n2-c2ccc(NC(C)=O)cc2)cc1, the inhibition (Homo sapiens) was 36.8%.
COc1ccc(S(=O)(=O)Nc2cccc(-c3nc4ccccc4n3-c3ccc(Cl)cc3)c2)cc1 showed an inhibition (Homo sapiens) of 52.6% and an IC50 [3] of 5.35 µM.
COc1ccc(S(=O)(=O)NC(=O)c2cccc(-c3nc4ccccc4n3C)c2)cc1 showed an inhibition (Homo sapiens) of 5.7%.
Work on CC(=O)Nc1ccc(-n2c(-c3cccc(NS(=O)(=O)c4ccc(Cl)cc4)c3)nc3ccccc32)cc1 yielded an inhibition (Homo sapiens) of 21.1%.
Cn1c(-c2cccc(NS(=O)(=O)c3ccc(Cl)cc3)c2)nc2ccccc21 gave an inhibition (Homo sapiens) of 0%.
COc1ccc(S(=O)(=O)Nc2cccc(-c3nc4ccccc4n3C(C)C)c2)cc1 gave an inhibition (Homo sapiens) of 7.1%.
For O=S(=O)(Nc1cc(Cl)cc(-c2nc3ccccc3[nH]2)c1)c1ccc(Cl)cc1, the inhibition (Homo sapiens) was 5.4%.
COc1ccc(S(=O)(=O)NC(=O)c2cccc(-c3nc4ccccc4n3C(C)C)c2)cc1 showed an inhibition (Homo sapiens) of 0%.
Compound COc1ccc(S(=O)(=O)NC(=O)c2cc(Cl)cc(-c3nc4ccccc4[nH]3)c2)cc1 has a clearance [4] of 0.316 L/h/kg, an AUC(0-t) [5] of 19.5 µg·h/mL and an MRT last [6] of 1.86 h. It also gave a Tmax [7] of 0.25 h, an IC50 (Cytochrome P450 2C9) of 1.31 µM and an IC50 (Cytochrome P450 3A4) of 20 µM. The AUC(0-inf) [8] was 19.5 µg·h/mL, the AUC(0-t) [9] was 15.9 µg·h/mL and the half-life [10] was 1.79 h. It also gave an IC50 (Cytochrome P450 2D6) of 36.8 µM, an AUC(0-inf) [11] of 15.9 µg·h/mL and an MRT inf [12] of 1.86 h. It also gave a Cmax [13] of 33.5 µg/mL, a Tmax [14] of 1.98 min and an IC50 (Cytochrome P450 3A5) of 20 µM. For the same compound, the IC50 (Cytochrome P450 1A2) was 47.2 µM, the MRT inf [15] was 3 h and the inhibition (Homo sapiens) was 81.8%. The IC50 (Cytochrome P450 2C19) was over 50 µM, the half-life [16] was 1.29 h and the MRT last [17] was 3 h. For the same compound, the bioavailability [18] was 6.15%, the IC50 [3] was 2.08 µM and the Vz [19] was 9.799 L/kg. The Vd [20] was 0.813 L/kg, the Activity (Mus musculus [21]) was “Active” and the Cmax [22] was 7.16 µg/mL. It also gave a CL/F [23] of 5.22 L/h/kg.
COc1ccc(S(=O)(=O)Nc2cccc(-c3nc4ccccc4[nH]3)c2)cc1 gave an inhibition (Homo sapiens) of 0%.
Work on Nc1ncnc2c1ncn2[C@@H]1O[C@H](COP(=O)(O)O)[C@@H](O)[C@H]1O [ADENOSINE PHOSPHATE] yielded an inhibition (Homo sapiens) of 81.3% and an IC50 [3] of 3.29 µM.
